Reference: article PMC8983325 (Protein & Cell, 2022)
Where “and” joins values, the source holds several entries; their conditions need not be identical. Identical values can stand only once. Like-named read-outs stand apart in the source and are kept apart here.

Legend:
[1] = molecular target: T1, SARS2-PLpro (Severe acute respiratory syndrome coronavirus 2, UniProt P0DTD1); assay type: biochemical; conditions: read-out: IC50 against SARS2-PLpro
[2] = tested on: SARS-CoV-2; assay: microbe, parasite or virus in culture; assay type: cell-based
[3] = tested on: MERS-CoV; assay: microbe, parasite or virus in culture; assay type: cell-based
[4] = tested on: SARS-CoV-2; assay type: cell-based
[5] = tested on: MERS-CoV; assay type: cell-based
[6] = tested on: hCoV-229E; assay type: cell-based
[7] = tested on: hCoV-OC43; assay type: cell-based
[8] = tested on: SARS-CoV-2; assay type: cell-based; remark: listed apart in the source
[9] = tested on: MERS-CoV; assay type: cell-based; remark: listed apart in the source
[10] = molecular target: T1, SARS2-PLpro; assay type: binding, SARS-CoV-2
[11] = molecular target: MERS-PLpro_WT (Middle East respiratory syndrome-related coronavirus, UniProt K9N7C7); assay type: binding
[12] = tested on: SARS-CoV-2; parameters: species or system golden Syrian hamster; conditions: hamster, in vivo
[13] = tested on: human DUBs; assay type: biochemical
[14] = molecular target: T1, SARS2-PLpro; assay type: biochemical
[15] = tested on: cellular proteases (serine, cysteine and acid proteases); assay type: biochemical
[16] = tested on: PLpro-mediated IFN suppression (SARS2-PLpro, MERS-PLpro); assay type: cell-based
[17] = tested on: ISG15 and PKR expression; assay type: cell-based
[18] = tested on: Huh-7, VeroE6/TMPRSS2, Calu-3, Caco-2, BSC-1 cells and human embryonic lung fibroblasts (HELF)
[19] = tested on: ISG15 and PKR expression
[20] = molecular target: MERS-PLpro (Middle East respiratory syndrome-related coronavirus, UniProt K9N7C7); assay type: biochemical
[21] = Severe acute respiratory syndrome coronavirus 2, read-out: EC50 anti-SARS-CoV-2

MERS-PLpro_WT, sequence (K9N7C7 1552-1823 limits assumed): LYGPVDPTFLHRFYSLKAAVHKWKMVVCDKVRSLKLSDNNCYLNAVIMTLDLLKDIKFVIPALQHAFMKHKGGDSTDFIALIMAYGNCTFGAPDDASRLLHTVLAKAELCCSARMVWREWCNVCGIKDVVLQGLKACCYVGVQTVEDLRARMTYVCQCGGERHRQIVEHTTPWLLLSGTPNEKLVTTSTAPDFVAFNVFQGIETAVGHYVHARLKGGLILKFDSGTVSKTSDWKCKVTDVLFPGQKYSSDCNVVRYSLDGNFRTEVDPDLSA
MERS-PLpro, sequence (K9N7C7 1552-1823 limits assumed): as above

For `O=C(Nc1ccccc1Cl)c1sc(=S)n2c1[nH]c(=O)c1ccccc12` [F0213], the IC50 [1] was 7.4 µM, the EC50 [2, 21] was 4.55 µM and the EC50 ([2]; read-out: EC50 anti-SARS-CoV-2) was 4.55 µM and 4.5 µM. For the same compound, the EC50 ([3]; Middle East respiratory syndrome-related coronavirus, read-out: antiviral EC50 against MERS-CoV) was 1540 nM, the “reduction of SARS-CoV-2 viral yields” value [4] was “more than 1 log10” and the “decrease of viral yields, MERS-CoV” value [5] was “about 3 log10”. For the same compound, the “decrease of viral yields, hCoV-229E” value [6] was “about 2 log10”, the “decrease of viral yields, hCoV-OC43” value [7] was “around 1.5 log10” and the “NP antigen immunofluorescence, SARS-CoV-2-infected Vero cells” value [8] was “significant inhibition of virus replication”. For the same compound, the “NP antigen immunofluorescence, MERS-CoV-infected Vero cells” value [9] was “significant inhibition of virus replication”, the “KD of F0213 to SARS2-PLpro pre-incubated with GRL0617” value [10] was “undetectable” and the “binding affinity to SARS2-PLpro relative to GRL0617 (fold less)” value [10] was “around 5 fold”. For the same compound, the Kd ([10]; read-out: Kd, SARS2-PLpro) was 40.5 µM, the Kd ([11]; read-out: KD, MERS-PLpro WT) was 950 nM and the “decrease of infectious viral PFU in lung tissues” value [12] was 1–2 log10. For the same compound, the lung histology scores [12] was “significantly reduced”, the “suppression of SARS-CoV-2 genome copies (normalized by β-actin) in the lungs” value [12] was “comparable degree of suppression” and the “modification of cellular DUBs by HA-Ub-VS” value [13] was “no change”. For the same compound, the “modification of PLpro by HA-Ub-VS” value [14] was “almost completely eliminated”, the cellular protease activity [15] was “not affected” and the “IFN-β, IRF3 and NF-κB reporter gene expression under PLpro suppression” value [16] was “rescued the genes expression in a dose-dependent manner”. The “transcription levels of ISG15 and PKR, MERS-CoV-infected Huh-7 cells” value [17] was “reduced”, the “cytotoxicity in the matching cell lines” value [18] was “negligible cytotoxicity” and the “expression of ISG15 and PKR, SARS-CoV-2-infected Caco-2 cells” value [19] was “significantly enhanced”.
In the case of `Cc1cccc(NC(=O)c2sc(=S)n3c2[nH]c(=O)c2cc4c(cc23)OCO4)c1` [F0393], the IC50 [1] is reported as 15.8 µM and the EC50 [2, 21] is reported as 15.6 µM.
`N#C[C@@]1(c2ccc3c(N)ncnn23)O[C@H](CO)[C@@H](O)[C@H]1O` [GS-441524, reference compound] was tested, and the “decrease of infectious viral PFU in lung tissues” value [12] was “comparable”, the lung histology scores [12] was “significantly reduced” and the “suppression of SARS-CoV-2 genome copies (normalized by β-actin) in the lungs” value [12] was “comparable degree of suppression”.
`CCC(CC)COC(=O)[C@H](C)N[P@](=O)(OC[C@H]1O[C@@](C#N)(c2ccc3c(N)ncnn23)[C@H](O)[C@@H]1O)Oc1ccccc1` [remdesivir] was tested, and the “NP antigen immunofluorescence, SARS-CoV-2-infected Vero cells” value [8] was “significant inhibition of virus replication” and the “NP antigen immunofluorescence, MERS-CoV-infected Vero cells” value [9] was “significant inhibition of virus replication”.
In the case of GRL0617 [reference compound], the “effect on MERS-PLpro activity” value [20] is reported as “ineffective”, the “inhibition against MERS-CoV” value [3] is reported as “no inhibition” and the “NP antigen immunofluorescence, SARS-CoV-2-infected Vero cells” value [8] is reported as “marginal virus suppression”. The “NP antigen immunofluorescence, MERS-CoV-infected Vero cells” value [9] was “marginal virus suppression” and the “KD, MERS-PLpro WT” value [11] was “no binding affinity”.
